Reference: US20260041683A1, “Compounds with Anti-Acinetobacter Baumannii Activity” (University of Kentucky Research Foundation, priority 2022, published 2026)
Converted amounts (≈) assume the structure as drawn. Like-named read-outs stand apart in the source and are kept apart here.

Tests used:
[1] = system: S. enterica ATCC 14028; experiment: MIC determination; assay type: cell-based; conditions: Salmonella enterica, ATCC14028; Table 5; Mueller-Hinton medium; H = S. enterica ATCC 14028; read-out: MIC strain H
[2] = system: B. anthracis Sterne F32; experiment: microbe, parasite or virus in culture; assay type: cell-based; conditions: Bacillus anthracis, STERNEF32, read-out: MIC strain A
[3] = system: Ab ATCC 19606 (strain I); experiment: MIC determination (double dilution, Mueller-Hinton broth); assay type: cell-based, Acinetobacter baumannii; conditions: Acinetobacter baumannii, ATCC19606
Description: All bacterial strains listed above were stored at −80° C. All strains were streaked on Mueller-Hinton (MH) plates and allowed to grow at 37° C. overnight. […] The resulting culture was diluted 1:1000 and added to the prepared serially doubly diluted compound solutions in 96-well plates. For M. smegmatis, a 1:100 dilution of the bacteria was done in MH. All MIC values were determined using 96-well plates with low evaporation seals at least in duplicate. For each row, one well was reserved for sterile control (which consisted of 200 μL of MH medium) and another well was reserved for growth control (which consisted of 100 μL of MH medium seeded with 100 μL of bacterial culture).
(§1) Minimum inhibitory concentrations (MIC) of all compounds from the series were measured in liquid cultures of different Ab strains by a double-dilution method in Mueller-Hinton broth. Initially, the activity of all 46 compounds against Ab ATCC 19606 (a control strain) and Ab ATCC BAA1605 (a multidrug-resistant strain) (Table 1; data shown for 27 representative compounds) was measured.

[4] = system: S. aureus ATCC 25923; experiment: MIC determination; assay type: cell-based; conditions: Staphylococcus aureus, ATCC25923; Table 5; Mueller-Hinton medium; B = S. aureus ATCC 25923; read-out: MIC strain B
[5] = system: E. cloacae ATCC 13047; experiment: MIC determination; assay type: cell-based; conditions: Enterobacter cloacae, ATCC13047; Table 5; Mueller-Hinton medium; E = E. cloacae ATCC 13047; read-out: MIC strain E
[6] = system: E. coli MC1061; experiment: MIC determination; assay type: cell-based; conditions: Escherichia coli; Table 5; Mueller-Hinton medium; D = E. coli MC1061; read-out: MIC strain D
[7] = system: Ab ATCC BAA1605 (strain J, multidrug-resistant); experiment: MIC determination; assay type: cell-based; conditions: Acinetobacter baumannii
Description: (§2) All bacterial strains listed above were stored at −80° C. All strains were streaked on Mueller-Hinton (MH) plates and allowed to grow at 37° C. overnight. Enough colonies were scraped from the plate and suspended in MH broth with vortexing to reach an attenuance at 600 nm (OD600) of ˜0.5. The resulting culture was diluted 1:1000 and added to the prepared serially doubly diluted compound solutions in 96-well plates. For M. smegmatis, a 1:100 dilution of the bacteria was done in MH. All MIC values were determined using 96-well plates with low evaporation seals at least in duplicate. For each row, one well was reserved for sterile control (which consisted of 200 μL of MH medium) and another well was reserved for growth control (which consisted of 100 μL of MH medium seeded with 100 μL of bacterial culture).
as §1

[8] = system: all 43 strains of A. baumannii (41 CDC strains and 2 ATCC strains); experiment: MIC value statistics for all A. baumannii strains; assay type: cell-based, Acinetobacter baumannii; conditions: of 43 A. baumannii strains
Description: as §2, with “[…].” for “For M. smegmatis, a 1:100 dilution of the bacteria was done in MH. All MIC values were determined using 96-well plates with low evaporation seals at least in duplicate.”
Having established that the observed activity is selective to A. baumannii, all synthesized compounds were tested against a panel of antibiotic resistant A. baumannii from the Antimicrobial Resistant (AR) Isolate Bank from the CDC along with strains I and J (Table Si). […]. Based on this statistical analysis, the best compound is 5e followed closely by 3e.

[9] = system: P. aeruginosa ATCC 27853; experiment: MIC determination; assay type: cell-based; conditions: Pseudomonas aeruginosa, ATCC27853; Table 5; Mueller-Hinton medium; G = P. aeruginosa ATCC 27853; read-out: MIC strain G
[10] = system: K. pneumoniae ATCC 27736; experiment: MIC determination; assay type: cell-based; conditions: Klebsiella pneumoniae, ATCC27736; Table 5; Mueller-Hinton medium; F = K. pneumoniae ATCC 27736; read-out: MIC strain F
[11] = system: S. epidermidis ATCC 12228; experiment: MIC determination; assay type: cell-based; conditions: Staphylococcus epidermidis, ATCC12228; Table 5; Mueller-Hinton medium; C = S. epidermidis ATCC 12228; read-out: MIC strain C
[12] = Table 5, Mueller-Hinton medium, I = A. baumannii ATCC 19606, read-out: MIC strain I
[13] = Table 5, Mueller-Hinton medium, J = A. baumannii BAA1605, read-out: MIC strain J
[14] = Table 1, control strain, read-out: MIC Ab ATCC 19606
[15] = Table 1, multidrug-resistant strain, read-out: MIC Ab ATCC BAA 1605

SMILES | MIC [1] | MIC [2] | MIC [3, 12] | MIC [4] | MIC [5] | MIC [6] | MIC [7, 13] | number of compound/strain combinations with MIC value >64 μg/mL [8] | MIC [9] | MIC [10] | MIC [11] | MIC [3, 14] | MIC [7, 15] | number of compound/strain combinations with MIC value 0.25 μg/mL [8] | number of compound/strain combinations with MIC value 0.5 μg/mL [8] | number of compound/strain combinations with MIC value ≤0.125 μg/mL [8] | number of compound/strain combinations with MIC value 1 μg/mL [8] | number of compound/strain combinations with MIC value 2 μg/mL [8] | number of compound/strain combinations with MIC value 4 μg/mL [8] | number of compound/strain combinations with MIC value 8 μg/mL [8]
O=C(NNC1CCCCC1)c1ccc2ccccc2n1 [Compound 12h] | > 64 µg/mL | > 64 µg/mL | > 64 µg/mL | > 64 µg/mL | > 64 µg/mL | 64 µg/mL (≈ 238 µM) | > 64 µg/mL | 43 | > 64 µg/mL | > 64 µg/mL | > 64 µg/mL | – | – | – | – | – | – | – | – | –
C=CC(=O)NNc1ccc(Cl)cc1 [Compound 17e] | 16 µg/mL (≈ 81.4 µM) | > 64 µg/mL | 0.25 µg/mL (≈ 1.27 µM) | 64 µg/mL (≈ 325 µM) | 16 µg/mL (≈ 81.4 µM) | 16 µg/mL (≈ 81.4 µM) | 0.25 µg/mL (≈ 1.27 µM) | – | > 64 µg/mL | 16 µg/mL (≈ 81.4 µM) | 64 µg/mL (≈ 325 µM) | 0.25 µg/mL (≈ 1.27 µM) | 0.25 µg/mL (≈ 1.27 µM) | 21 | 13 | 9 | – | – | – | –
O=C(NNc1cccc(F)c1)c1ccc(F)cn1 [Compound 3a] | > 64 µg/mL | > 64 µg/mL | 0.5 µg/mL (≈ 2.01 µM) | > 64 µg/mL | > 64 µg/mL | 64 µg/mL (≈ 257 µM) | 0.5 µg/mL (≈ 2.01 µM) | – | > 64 µg/mL | > 64 µg/mL | > 64 µg/mL | 0.5 µg/mL (≈ 2.01 µM) | 0.5 µg/mL (≈ 2.01 µM) | 16 | 18 | 9 | – | – | – | –
O=C(NNc1ccc(Cl)cc1)c1cc2ccccc2[nH]1 [Compound 14e] | > 64 µg/mL | > 64 µg/mL | 0.5 µg/mL (≈ 1.75 µM) | > 64 µg/mL | > 64 µg/mL | > 64 µg/mL | 0.25 µg/mL (≈ 0.875 µM) | – | > 64 µg/mL | > 64 µg/mL | > 64 µg/mL | – | – | 18 | 20 | 3 | 2 | – | – | –
COc1ccc(NNC(=O)c2ccc(F)cn2)cc1 [Compound 3f] | > 64 µg/mL | > 64 µg/mL | 1 µg/mL (≈ 3.83 µM) | > 64 µg/mL | > 64 µg/mL | > 64 µg/mL | 0.5 µg/mL (≈ 1.91 µM) | – | > 64 µg/mL | > 64 µg/mL | > 64 µg/mL | 1 µg/mL (≈ 3.83 µM) | 0.5 µg/mL (≈ 1.91 µM) | 1 | 2 | – | 9 | 19 | 11 | 1
COc1cccc(NNC(=O)c2ccc(F)cn2)c1 [Compound 3c] | > 64 µg/mL | > 64 µg/mL | 0.5 µg/mL (≈ 1.91 µM) | > 64 µg/mL | > 64 µg/mL | > 64 µg/mL | 0.5 µg/mL (≈ 1.91 µM) | – | > 64 µg/mL | > 64 µg/mL | 64 µg/mL (≈ 245 µM) | 0.5 µg/mL (≈ 1.91 µM) | 0.5 µg/mL (≈ 1.91 µM) | 2 | 12 | 1 | 23 | 5 | – | –
O=C(NNc1ccc(F)cc1)c1ccc(F)cn1 [Compound 3d] | 64 µg/mL (≈ 257 µM) | > 64 µg/mL | 0.5 µg/mL (≈ 2.01 µM) | > 64 µg/mL | 64 µg/mL (≈ 257 µM) | 64 µg/mL (≈ 257 µM) | 0.25 µg/mL (≈ 1 µM) | – | > 64 µg/mL | 64 µg/mL (≈ 257 µM) | > 64 µg/mL | 0.5 µg/mL (≈ 2.01 µM) | 0.25 µg/mL (≈ 1 µM) | 10 | 19 | 1 | 13 | – | – | –
CCOC(=O)CNNC(=O)c1ccc2ccccc2n1 [Compound 12g] | > 64 µg/mL | > 64 µg/mL | > 64 µg/mL | > 64 µg/mL | > 64 µg/mL | > 64 µg/mL | > 64 µg/mL | 43 | > 64 µg/mL | > 64 µg/mL | > 64 µg/mL | – | – | – | – | – | – | – | – | –
CCOC(=O)CNNC(=O)c1cccc(F)n1 [Compound 5g] | – | – | – | – | – | – | – | 43 | – | – | – | > 64 µg/mL | > 64 µg/mL | – | – | – | – | – | – | –
